Laboratory results from ChEMBL document CHEMBL1201862, “PubChem BioAssay data set” (2004).
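Tested at 5 concentrations; 48 h exposure; 96-well plates; endpoints linearly interpolated, else capped at highest concentration. GI50: concentration for 50% inhibition of growth.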 Calls of active or inactive are those of the source. Cut-off read from the data, not from the text of the source: active = GI50 up to about 1.1 µM and inactive = higher. Peptide text beside a SMILES is read from it.

What was measured:
Assay in all cases: DTP human tumour cell line panel, 48 h
[1] = system: MDA-N
[2] = system: KM12
[3] = system: Malme-3M
[4] = system: NCI/ADR-RES
[5] = system: SF-539
[6] = system: NCI-H23
[7] = system: Hs-578T
[8] = system: HOP-62
[9] = system: SK-OV-3
[10] = system: OVCAR-8
[11] = system: SK-MEL-2
[12] = system: RXF 393
[13] = system: SK-MEL-5
[14] = system: ACHN
[15] = system: HCT-116
[16] = system: SN12C
[17] = system: UACC-62
[18] = system: A549
[19] = system: HT-29
[20] = system: SF-268

SMILES	GI50 [1]	GI50 [2]	GI50 [3]	GI50 [4]	GI50 [5]	GI50 [6]	GI50 [7]	GI50 [8]	GI50 [9]	GI50 [10]	GI50 [11]	GI50 [12]	GI50 [13]	GI50 [14]	GI50 [15]	GI50 [16]	GI50 [17]	GI50 [18]	GI50 [19]	GI50 [20]
C=C(C(=O)OC1C(CO)OC(OCC2CC[C@@H]3C[C@]4(OC(=O)C3=C)C(C)=CC(=O)C24)C(O)C1O)[C@@H]1CCC(CO)C2C(=O)C=C(C)[C@@]2(O)C1 (stereo not given in full)	1.44 µM (inactive)	2.55 µM (inactive)	1.46 µM (inactive)	2.19 µM (inactive)	0.482 µM (active)	1.63 µM (inactive)	4.09 µM (inactive)	9.4 µM (inactive)	20.4 µM (inactive)	1.43 µM (inactive)	2.47 µM (inactive)	0.757 µM (active)	1.29 µM (inactive)	1.44 µM (inactive)	1.22 µM (inactive)	1.32 µM (inactive)	1.62 µM (inactive)	4.37 µM (inactive)	1.73 µM (inactive)	3.4 µM (inactive)
CCC(C)C(NC(=O)C(NC(=O)C(CC(N)=O)NC(=O)CN)C(C)O)C(=O)NC(C(=O)NC(C)C(=O)NC(C(=O)NC(CCC(=O)O)C(=O)NC(CC(C)C)C(=O)NC(CC(=O)O)C(=O)NC(C(=O)NC(Cc1ccc(O)cc1)C(=O)N1CCCC1C(=O)O)C(C)O)C(C)C)C(C)C (stereo not given) (H-GNTIVAVELDTYP-OH; configuration not given here)	> 50 µM (inactive)	> 50 µM (inactive)	> 50 µM (inactive)	> 50 µM (inactive)	> 50 µM (inactive)	> 50 µM (inactive)	> 50 µM (inactive)	> 50 µM (inactive)	> 50 µM (inactive)	> 50 µM (inactive)	> 50 µM (inactive)	> 50 µM (inactive)	> 50 µM (inactive)	> 50 µM (inactive)	> 50 µM (inactive)	> 50 µM (inactive)	> 50 µM (inactive)	> 50 µM (inactive)	> 50 µM (inactive)	> 50 µM (inactive)
CN(C)CCCN1C(=S)N(CCCN(C)C)c2c3ccccc3nc3c([N+](=O)[O-])ccc1c23	7.46 µM (inactive)	3.3 µM (inactive)	1.75 µM (inactive)	6.95 µM (inactive)	5.04 µM (inactive)	9.08 µM (inactive)	6.27 µM (inactive)	8.95 µM (inactive)	15.5 µM (inactive)	5.31 µM (inactive)	12.5 µM (inactive)	5.08 µM (inactive)	4.55 µM (inactive)	4.06 µM (inactive)	3.71 µM (inactive)	4.15 µM (inactive)	9.95 µM (inactive)	5.41 µM (inactive)	2.94 µM (inactive)	4.21 µM (inactive)
COc1ccc(N2C(=O)C3c4[nH]c5ccc(Br)cc5c4C4CCC(C(C)(C)C)CC4C3C2=O)cc1 (stereo not given)	> 100 µM (inactive)	> 100 µM (inactive)	91.8 µM (inactive)	> 100 µM (inactive)	> 100 µM (inactive)	> 100 µM (inactive)	> 100 µM (inactive)	> 100 µM (inactive)	> 100 µM (inactive)	> 100 µM (inactive)	> 100 µM (inactive)	> 100 µM (inactive)	> 100 µM (inactive)	> 100 µM (inactive)	> 100 µM (inactive)	> 100 µM (inactive)	> 100 µM (inactive)	> 100 µM (inactive)	> 100 µM (inactive)	> 100 µM (inactive)
OCCN(CCO)CCn1cnc2c(NCc3ccccc3)ncnc21	> 100 µM (inactive)	> 100 µM (inactive)	> 100 µM (inactive)	> 100 µM (inactive)	> 100 µM (inactive)	> 100 µM (inactive)	> 100 µM (inactive)	> 100 µM (inactive)	> 100 µM (inactive)	> 100 µM (inactive)	> 100 µM (inactive)	> 100 µM (inactive)	> 100 µM (inactive)	> 100 µM (inactive)	> 100 µM (inactive)	> 100 µM (inactive)	> 100 µM (inactive)	> 100 µM (inactive)	> 100 µM (inactive)	> 100 µM (inactive)
Cc1ccc([S@+]([O-])c2occc2C=O)cc1	4.44 µM (inactive)	17.2 µM (inactive)	3.7 µM (inactive)	11 µM (inactive)	11.4 µM (inactive)	14.5 µM (inactive)	16.4 µM (inactive)	17.5 µM (inactive)	13.6 µM (inactive)	9.93 µM (inactive)	15 µM (inactive)	13.3 µM (inactive)	10.4 µM (inactive)	15.4 µM (inactive)	3.03 µM (inactive)	7.26 µM (inactive)	15.5 µM (inactive)	19.6 µM (inactive)	7.38 µM (inactive)	5.38 µM (inactive)
